Literature values in US9884129B2, “Release of agents from cells” (The Brigham and Women s Hospital, Inc., priority 2009, dated 2018).

System: tumor
Conditions: with neural stem cells modified to produce cytosine deaminase; systemic prodrug

For `Nc1nc(=O)[nH]cc1F` [5-fluorocytosine], the “reduction in tumor mass” value is listed as 80%.
